Measurements published in patent US20090062255A1, “TUMOR-TARGETING EVALUATION METHODOLOGY AND COMPOUNDS RELATED THERETO” (THALLION PHARMACEUTICALS INC., priority 2007, published 2009).
“And” between values parts separate entries of the source, which are not always exact repeats. Equal values may be shown once.

Columns and labels:
[1] = test system: DN oligodendroglioma cell line; assay: MTT cytotoxicity, DN cell line; assay type: cell-based; details: 96 h, Human
Protocol: (§1) The cytotoxic activity of Compound 1 was further evaluated using a panel of brain tumor cell lines. This study was performed in collaboration with INSERM (Grenoble, France). Tumor cells (5,000 to 10,000 cells per well depending on their doubling time) were plated in 96-well flat-bottom plates and incubated for 24 hours before treatment. Tumor cells were then incubated for 96 hours with seven different concentrations of Compound 1: […], 0.01, and 0.001 μM. The in vitro cytotoxic activity was determined by a standard MTT assay.

PBR [2] = biological target: T1, PBR (Rattus norvegicus, UniProt P16257); assay: In vivo PBR occupancy by PET (11C-(R)-PK11195) following IP administration; details: 30 mg/kg IP, 30 min before scan, mean±S.D.
T1 construct: from tissue; host or cells: orthotopic rat C6 glioma in Sprague-Dawley rats, in vivo
Protocol: (§2) (R)-1-(2-chlorophenyl)-N-methyl-N-(1-methyl-propyl)-3-isoquinoline carboxamide (R N-desmethyl PK11195), the precursor for the radioisotope-labeled (R) —PK11195, was purchased from ABX (Radeburg, Germany). The synthesis of ^11C-(R)-PK11195 was accomplished by a modification of the method of Camsonne et al. (J. Label. Compd. Radiopharm., 21: 985-991,1984). Briefly, ^11C-methyl iodide (^11C—CH3I) was transferred by a stream of nitrogen gas at a flow rate of 10 ml/min into a reaction medium containing 1 mg or R—N-desmethyl PK11195 previously dissolved in 0.5 mL of dimethylsulfoxide (DMSO) and about 20 mg of sodium hydroxide. The reaction was initiated at room temperature, with a bubbling of the ^11C—CH3I being continued over a 5 minute period. After bubbling was complete, the reaction mixture was left standing for 5 minutes. Purification was performed by high pressure liquid chromatography (HPLC) using a reverse-phase C18 column and a methanol:ammonium formate (20 mM) (80:20) mixture and a mobile phase at a flow rate of 3 mL/min. ^11C—(R) —PK11195 was eluted at 11 minutes and obtained with a specific radioactivity of […].
In vivo PET studies were performed 14 days post tumor implantation. […] Attenuation correction factors, for each rat (total of 7 animals), were determined using a 10 min ^57Co transmission scan acquired immediately prior to the dynamic scan. […]

[3] = test system: human breast cell line MDA-MB-231; assay: Growth inhibitory MTT assay, MDA-MB-231; assay type: cell-based; details: 72 hours, treated over control
Protocol: Growth inhibitory activity of ECO-4601 (Compound 1) and other dibenzodiazepinone analogs was evaluated on a panel of 4 human tumor cell lines: the human uterine sarcoma MES-SA and its doxorubicin-resistant P-glycoprotein over-expressing variant, MES-SA/DX5 as well as non-aggressive and highly aggressive human breast cell lines, MCF-7 and MDA-MB-231, respectively. These four cell lines were obtained from the American Type Culture Collection (Manassas, Va.) and cultured in RPMI plus 10% fetal bovine serum (FBS) and maintained at 37° C. with 5% CO2.
Exponentially growing cells (5,000 cells per well time; cell number determined with a hemocytometer) were seeded in 96-well flat-bottom plates and allowed to grow overnight. Cells were then incubated for 72 hours with three different concentrations of ECO-4601 or analogs: 30,10, and 3 μM. The in vitro growth inhibitory activity was determined by a commercial MTT assay. All measurements were done in quadruplicate and each experiment was performed 2-3 times. The lower the value, the more cytotoxic is the compound.

[4] = test system: C6 glioblastoma cell line; assay: MTT cytotoxicity, C6 cell line; assay type: cell-based; details: 96 h, Rat
Protocol: as §1

brain tumor cell lines = assay: MTT cytotoxicity, panel of brain tumor cell lines (summary); assay type: cell-based; details: 96 hours; read-out: IC50 values against brain tumor cell lines, range
Protocol: as §1

[5] = test system: Phospho-ERK (Ras-MAPK signaling pathway); assay: ERK phosphorylation ELISA assay (FACE) in MCF-7 cells; assay type: cell-based, human; details: 6 hours, EGF 100 ng/mL for 5 min
Protocol: Human breast tumor MCF-7 cells were plated in 96-well culture plates (10,000 cells per well) in RPMI containing 10% FBS. After an overnight incubation, the medium is changed to low serum conditions (RPMI containing 0.1% FBS) for 18 h. Cells were then treated with ECO-4601 or selected analogs for 6 hours and then stimulated by the addition of EGF (100 ng/mL for 5 min) to induce the MAPK pathway. UO126 is a commercial inhibitor (Promega, Madison, Wis.) of mitogen-activated protein kinase kinase (MEK1/ERK). Following stimulation, cells were rapidly fixed, which preserved activation-specific protein modifications. Each well was then incubated with an antibody specific for Phospho-ERK or total ERK. After an one-hour incubation and several washes, cells were incubated with a secondary HRP-conjugated antibody followed by a developing solution that provided a colorimetric readout that is quantitative and reproducible. The Fast Activated Cell-based ELISA (FACE™) is commercially available (Active Motif, Carlsbad, Calif.).

PBR [6] = biological target: T1, PBR; assay: In vivo PBR occupancy by PET (11C-(R)-PK11195) following IV bolus and CIV infusion
Protocol: as §2
The above study was repeated but his time ECO-4601 was administered as a bolus push followed by a continuous intra-venous (CIV) infusion of ECO-4601 obtained in the steady-state condition through the second 11C-PK11195 PET scan. […]
To determine a mean tumor binding potential (B.P.) (baseline) and the mean B.P., the simplified reference tissue method was utilized comparing the ratio of tumor to normal brain. As a result, mean tumor binding potential (B.P.) (baseline) was calculated to be 2.19±0.16 (mean±SEM) and the mean B.P. (ECO-4601) was calculated to be 0.14±0.13 (mean±SEM).

[7] = individual rats, IV bolus 30 mg/kg then CIV 5 mg/kg/hour, listed as ECO-4601

CC(C)=CCC/C(C)=C/CC/C(C)=C/CN1C(=O)c2cccc(O)c2Nc2c(O)cc(O)cc21 [Compound 1, 10-farnesyl-4,6,8-trihydroxy-5,10-dihydrodibenzo[b,e][1,4]diazepin-11-one]
IC50 [1]: 3 ± 0.7 µM | mean tumor binding potential (B.P.) after compound (PBR [2]): 1.05±0.34 | % T/C at 10 μM [3]: 38% | IC50 [4]: 4.3 ± 2.3 µM | IC50 (brain tumor cell lines): 1.6 to 8.9 µM | inhibition of phospho-ERK in the FACE ELISA assay [5]: inhibit the Ras-MAPK signaling pathway | mean tumor binding potential (B.P.) after compound (PBR [6]; CIV infusion, mean±SEM, n=6): 0.14±0.13 | reduction of PBR occupancy for 11C-(R)-PK11195 binding, average (PBR [6]; CIV infusion, n=6): 91.67% | % PBR occupancy (PBR [6]; [7]): 100% and 30% and 50% | Binding Potential (ECO-4601) (PBR [6]; [7]): 0 (5×) and 1.81 and 0.84
